Values quoted from earlier work, collected in patent US20240374634A1, “NUTRACEUTICAL OPHTHALMIC COMPOSITION FOR THE TREATMENT OF RETINAL PATHOLOGIES HAVING A NEOVASCULAR COMPONENT” (Laboratoires THEA, priority 2018, published 2024).

Settings: 300 patients over three years, after a significant increase in DHA in cells

SMILES: CC/C=C\C/C=C\C/C=C\C/C=C\C/C=C\C/C=C\CCC(=O)O [DHA, Docosahexaenoic acid (DHA)]
- reduction in the risks of developing neovascular AMD: 68%
